Data on 104 molecules can be found in PubChem BioAssay AID1996.

Converted amounts (≈) assume the structure as drawn.

For the data set the following is noted: buffer; pH 7.4; 200.0 µM.
For `CN(C)c1ccc(NC(=O)CCN2C(=O)c3cccc([N+](=O)[O-])c3C2=O)cc1`, the kinetic solubility was determined as 0.0424 mg/mL (≈ 111 µM). For `COC(=O)CSc1nccc(-c2ccc(F)cc2)c1C#N`, the kinetic solubility was less than 0.0003 mg/mL. The molecule `COc1cc2c(cc1OC)C(c1ccccc1N)=NCC2` displayed a solubility (kinetic) of more than 0.0424 mg/mL. The molecule `Cc1cc(F)ccc1S(=O)(=O)NCC1CC2CCC1C2` (centres undefined) yielded a solubility (kinetic) of 0.0042 mg/mL (≈ 14.1 µM). The value for `Cc1ccc2c(c1)c(=O)c1c3n2CCN(CC#N)C3CC1` (centres undefined) was 0.0377 mg/mL (≈ 135 µM). `CC1CCCC(NC(=O)COC(=O)c2cc(=O)[nH]c3ccccc23)C1C` (centres undefined): the kinetic solubility was 0.0046 mg/mL (≈ 12.9 µM). The result for `O=C(COC(=O)COc1ccccc1)NC1CCCC1` reads more than 0.0416 mg/mL; that for `Cc1ccc2nc(SCC(=O)NC3CC3)[nH]c2c1`, more than 0.0392 mg/mL.

Consider `C=CCn1c(O)c(C(CC)=NCc2ccc3c(c2)OCO3)c(=O)[nH]c1=O`, for which the solubility (kinetic) is 0.003 mg/mL (≈ 8.39 µM). As to `N#Cc1ccccc1OCC(=O)NCC(c1cccs1)N1CCOCC1` (centres undefined), the solubility (kinetic) is more than 0.0557 mg/mL.

Regarding `Cc1ccc2c3c([nH]c2c1)C(=O)CC(C)(C)S3`, the kinetic solubility is less than 0.0005 mg/mL.

`Cc1ccc(NC(=O)C23CCC(C)(C(=O)[C@H]2Br)C3(C)C)cc1` (some centres undefined) showed a solubility (kinetic) of 0.0432 mg/mL (≈ 119 µM). Turning to `CCOc1ccc(NC(=O)CN2CCc3ccccc3C2)cc1`, the kinetic solubility turned out to be 0.034 mg/mL (≈ 110 µM). The solubility kinetic values of the last two molecules are within 1.5-fold of each other. The value for `CCNC(=O)[C@H]1O[C@@H](n2cnc3c(N)ncnc32)[C@H](O)[C@@H]1O` was more than 0.0462 mg/mL; that for `Cc1nc([N+](=O)[O-])c(N2CCOCC2)n1Cc1ccccc1` was 0.0447 mg/mL (≈ 148 µM); that for `CCc1cc(=O)oc2cc(OCC(=O)N3CC[C@@]4(O)CCCC[C@H]4C3)ccc12` was more than 0.0578 mg/mL. The result for `Cc1ccc(S(=O)(=O)NC(=O)Nc2cc(C(C)(C)C)on2)cc1` reads more than 0.0506 mg/mL. The result for `Brc1ccc(OCc2nc3ccccc3[nH]2)cc1` reads 0.0024 mg/mL (≈ 7.92 µM). Molecule `CS(=O)(=O)N1CCC(C(=O)NCc2ccccc2)CC1` registered a kinetic solubility of more than 0.0445 mg/mL. The result for `NC(=O)C1CCCN1` (centres undefined) reads more than 0.0171 mg/mL; that for `CC(C)=CC(=O)OCC(=O)Nc1ccc(SC(F)F)cc1`, 0.0106 mg/mL (≈ 33.6 µM); that for `O=S(=O)(NCCCc1ccccc1)c1ccc(Br)cc1`, 0.0107 mg/mL (≈ 30.2 µM). The result for `CCC(=O)N=c1ccn(C2=Nc3ccccc3NC2=C(C#N)C#N)cc1` reads 0.0309 mg/mL (≈ 90.3 µM). Consider `N/C(=N\OC(=O)/C=C/c1ccccc1Cl)c1ccncc1`, for which the solubility (kinetic) was 0.0282 mg/mL (≈ 93.5 µM). The molecule `O=C(NC(=S)Nc1ccccc1C(=O)O)c1cncc(Br)c1` came in with a solubility (kinetic) of more than 0.057 mg/mL. `O=S(=O)(Nc1nc2ccccc2nc1NCC1CCCO1)c1ccccc1` (centres undefined) came in with a kinetic solubility of more than 0.0577 mg/mL. The value for `CCCc1cc(=O)[nH]c(SCC(=O)N2CCc3ccccc32)n1` was 0.0076 mg/mL (≈ 23.1 µM); that for `COc1ccc2c(c1)nc(CN1CCN(CCO)CC1)n2C` was more than 0.0457 mg/mL. The result for `Cc1ccc(S(=O)(=O)Nc2ccccc2N2CCCCC2)cc1` reads 0.0031 mg/mL (≈ 9.38 µM). In the case of `CC(O)CNC(=O)Cc1cc(=O)[nH]c(=O)[nH]1` (centres undefined), the kinetic solubility is more than 0.0341 mg/mL.

Molecule `Cc1nc(SCc2ccc(C(=O)O)cc2)c2c(C)c(C)sc2n1` showed a solubility (kinetic) of 0.0495 mg/mL (≈ 144 µM). The value for `Cl.Clc1ccc(CNCC2CCCO2)c(Cl)c1` (centres undefined) was 0.037 mg/mL; that for `O=C(CNS(=O)(=O)c1ccccc1)N1CCc2ccccc2C1` was more than 0.0496 mg/mL; that for `CC1CN(C(=O)CCNC(=O)c2ccccc2Cl)CC(C)O1` (centres undefined) was more than 0.0487 mg/mL. The value for `CC(CCc1ccccc1)N1CCN(C)CC1` (centres undefined) was 0.0332 mg/mL (≈ 143 µM). `Cc1ccc(SCC(=O)NCc2ccc(F)cc2)cc1` registered a solubility (kinetic) of 0.0095 mg/mL (≈ 32.8 µM). `COc1cccc(OC)c1C(=O)NC(=O)Nc1c(C)cccc1C` yielded a solubility (kinetic) of 0.0052 mg/mL (≈ 15.8 µM).

For the molecule `O=C(NCc1ccco1)NC(=O)c1csc([N+](=O)[O-])c1`, the solubility (kinetic) was 0.0006 mg/mL (≈ 2.03 µM).

Turning to `CCCc1cc(=O)[nH]c(SCC(=O)Nc2ccc(C)cc2)n1`, the kinetic solubility is 0.0031 mg/mL (≈ 9.77 µM).

Molecule `Cc1ccc(-c2ocnc2C(=O)Nc2nc(C)cs2)cc1` displayed a solubility (kinetic) of 0.0011 mg/mL (≈ 3.67 µM).

Molecule `CN(Cc1ccccc1)C(=S)Nc1cccnc1` registered a kinetic solubility of more than 0.0386 mg/mL. The result for `CCCn1c(COc2ccc(C(=O)O)cc2)nc2ccccc21` reads more than 0.0466 mg/mL; that for `O=C(O)c1cc(-c2cccs2)nc2ccc(F)cc12`, more than 0.041 mg/mL. The result for `Cc1csc(SC(C)C(=O)NCC2CCCO2)n1` (centres undefined) reads more than 0.043 mg/mL; that for `CC(=O)C1=C(O)C(=O)N(c2ccccn2)C1c1ccc(Cl)cc1` (centres undefined), 0.0409 mg/mL (≈ 124 µM).

`CC(C)(C)NC(=S)N1CCC(C(=O)c2ccc(F)cc2)CC1` registered a solubility (kinetic) of 0.0052 mg/mL (≈ 16.1 µM).

In turn, `COc1ccc(N=C2NC(=O)/C(=C/C=C/c3ccccc3)S2)cc1` registered a solubility (kinetic) of less than 0.0004 mg/mL. The result for `Nc1c(Br)cc(Br)cc1CNC1CCC(O)CC1` (centres undefined) reads more than 0.0567 mg/mL; that for `O=C(NC1CC1)C1CC(=O)N(c2ccc(F)cc2)C1` (centres undefined), 0.0376 mg/mL (≈ 143 µM); that for `CCOc1ccc(/C=N/OCC(=O)NCc2ccco2)cc1`, more than 0.0453 mg/mL. Turning to `CCN(CC)C(=O)N[C@H]1C[C@@H]2c3cccc4[nH]cc(c34)C[C@H]2N(C)C1`, the solubility (kinetic) came out at 0.0141 mg/mL (≈ 41.4 µM). The value for `NC(=O)NC(c1ccc(Cl)cc1)c1ccccc1Cl` (centres undefined) was more than 0.0443 mg/mL; that for `Cc1oc(C(N)=O)nc1-c1ccccc1` was more than 0.0303 mg/mL; that for `Cc1ccc(NC(=O)CS(=O)c2ccccc2N)c(C)c1` (centres undefined) was more than 0.0454 mg/mL. As to `Cc1ccc(Nc2nc(C)cc(C)c2C(N)=O)c(C)c1`, the kinetic solubility is more than 0.0404 mg/mL. The value for `S=c1[nH]nc(C2CCCCC2)o1` was more than 0.0276 mg/mL; that for `Cc1ccc(NC2=CC(=O)C(=O)c3ccccc32)c(C)c1` was 0.0035 mg/mL (≈ 12.6 µM). The molecule `O=C(COC(=O)c1ccc2c(c1)OCO2)NC1CCCCC1` registered a solubility (kinetic) of 0.0184 mg/mL (≈ 60.3 µM). The result for `COc1ccc(S(=O)(=O)NCc2ccccc2)cc1Br` reads 0.0043 mg/mL (≈ 12.1 µM); that for `O=C(COC(=O)C1CC1)NCCc1ccccc1`, more than 0.0371 mg/mL. The value for `O=Cc1cn(Cc2ccc(Br)cc2)c2ccccc12` was less than 0.0007 mg/mL; that for `Cc1ccc(NC(=O)C2CCCC2)c(Br)c1` was 0.0086 mg/mL (≈ 30.5 µM). `Cc1cc(C(=O)COc2ccc(C#N)cc2)c(C)n1CC1CCCO1` (centres undefined) came in with a solubility (kinetic) of 0.0167 mg/mL (≈ 49.3 µM). The result for `Cc1ccc(CN(C)C(=O)c2cccc(S(=O)(=O)N3CCc4ccccc43)c2)cc1` reads 0.0058 mg/mL (≈ 13.8 µM). Consider `CCOc1ccc(NC(=O)c2ccccc2NC(=O)CNC2CCCC(C)C2C)cc1` (centres undefined), for which the solubility (kinetic) was 0.0022 mg/mL (≈ 5.19 µM). Regarding `Cn1c(C2CCCCC2)nc2c1c(=O)[nH]c(=O)n2Cc1ccccc1`, the solubility (kinetic) worked out at 0.0167 mg/mL (≈ 49.3 µM). In turn, `Cc1ccccc1NC(=O)CC1SC(=Nc2ccc(O)cc2)NC1=O` (centres undefined) returned a solubility (kinetic) of 0.002 mg/mL (≈ 5.63 µM). In turn, `Cc1ccc(NC(=O)c2c(C)noc2C)cc1S(=O)(=O)N1CCOCC1` yielded a solubility (kinetic) of more than 0.0569 mg/mL. The result for `CC1=CC(C)(C)NC(=S)N1C(C)c1ccccc1` (centres undefined) reads 0.0072 mg/mL (≈ 27.6 µM).

Consider `Cc1ccccc1NC(=O)N1CCCN(c2ccc(C#N)cn2)CC1`, for which the kinetic solubility was more than 0.0503 mg/mL. As for `CC(=Nc1ccccc1C(F)(F)F)c1ccncc1`, the solubility (kinetic) is less than 0.0003 mg/mL. The value for `O=C(Cn1c(=O)oc2ccc(Cl)cc21)Nc1ccon1` was 0.0062 mg/mL (≈ 21.1 µM). With `CCOC(=O)c1ccc(CSC(=N)N)o1`, the solubility (kinetic) came to 0.0314 mg/mL (≈ 138 µM). This solubility kinetic is about 5.1-fold higher than that of the molecule before. The value for `COc1ccc([N+](=O)[O-])cc1NC(=O)C1(c2ccccc2)CCOCC1` was 0.0067 mg/mL (≈ 18.8 µM). In the case of `Cc1nn(CC(=O)NC2(C)CCS(=O)(=O)C2)c(C)c1S(=O)(=O)N(C)C` (centres undefined), the solubility (kinetic) is more than 0.0589 mg/mL. The value for `CCCNC(=O)c1ccc(COc2cccc3ccccc23)o1` was 0.0158 mg/mL (≈ 51.1 µM); that for `COC(=O)c1ccccc1-n1c(C)nc(=O)c(-c2ccccc2)c1C` was more than 0.0502 mg/mL; that for `Cc1ccc(NC(=O)Cn2cc(C=O)c3ccccc32)cc1C` was less than 0.0003 mg/mL. The value for `CCN(CC)c1ccc(NC(=S)Nc2ccc(F)cc2)cc1` was 0.009 mg/mL (≈ 28.4 µM); that for `CCCCOC(=O)c1ccc(OC(=O)N2CCOCC2)cc1` was more than 0.0461 mg/mL; that for `O=C(NC1CCN(c2ncccn2)CC1)c1ccccc1Cl` was more than 0.0475 mg/mL. The result for `CC(=O)NC(CC(=O)Nc1nc(C)cs1)c1ccccc1` (centres undefined) reads more than 0.0455 mg/mL. On to `O=C(CN1CCN(c2ccc(Cl)cc2)CC1)c1ccccc1`, for which the kinetic solubility came out at 0.0187 mg/mL (≈ 59.4 µM).

`O=C(OCc1csc(-c2ccccc2)n1)c1ccccc1O` yielded a kinetic solubility of less than 0.0007 mg/mL. The result for `Cc1cccnc1NC(=O)Nc1ccc(Cl)cc1` reads 0.0007 mg/mL (≈ 2.67 µM); that for `Cc1cccc(C)c1OCCCN1CCOCC1.Cl`, 0.0355 mg/mL; that for `Cc1cccc(CN2CCN(c3ncccn3)CC2)c1`, 0.0306 mg/mL (≈ 114 µM).

Consider `CCCC(=O)Nc1ccc(C2C(=O)c3ccccc3C2=O)cc1`, for which the kinetic solubility is more than 0.0461 mg/mL.

For the molecule `CC(NC(=O)COC(=O)CN1C(=O)c2ccccc2C1=O)c1ccccc1` (centres undefined), the kinetic solubility is more than 0.055 mg/mL. The result for `CCOc1ccc(N/C=C/C(=O)c2ccc(OC)cc2)cc1` reads less than 0.0006 mg/mL; that for `Cc1cc(=O)oc2cc(OCCSCCN3CCCC3)ccc12`, more than 0.05 mg/mL; that for `O=C(Nc1cccc(S(=O)(=O)N2CCOCC2)c1)c1ccc(Cl)nc1`, more than 0.0573 mg/mL. The value for `CC(=O)Nc1ccc(CC(=O)O)cc1` was more than 0.029 mg/mL; that for `COc1ccc(OCCCCn2c(CO)nc3ccccc32)cc1` was 0.0454 mg/mL (≈ 139 µM). On to `CCSc1ncc(Cl)c(C(=O)Nc2ccccc2F)n1`, for which the kinetic solubility was found to be 0.0005 mg/mL (≈ 1.6 µM). This solubility kinetic is about 91-fold lower than that of the molecule before. The value for `O=C(Nc1cccc(Cl)c1)c1cnc[nH]1` was more than 0.0332 mg/mL; that for `CC(=O)OCCCN(C)CC/C=C1/c2ccccc2CSc2ccccc21.Cl` was 0.0538 mg/mL.

The molecule `Cc1c(C(=O)Nc2ccccn2)sc2nc3n(c(=O)c12)CCC3` came in with a solubility (kinetic) of 0.0329 mg/mL (≈ 101 µM).

On to `COC(=O)c1ccc(NC(=O)c2cccnc2)cc1`, for which the solubility (kinetic) was more than 0.0384 mg/mL. The value for `Cc1c(C(=O)OCC(=O)N2C(C)CCCC2C)oc2ccccc12` (centres undefined) was 0.0441 mg/mL (≈ 134 µM). The result for `CCc1ccccc1N(CC(=O)N1CCCCCC1)S(C)(=O)=O` reads 0.0435 mg/mL (≈ 129 µM); that for `Cc1ccccc1-c1nnc(SCC(=O)N2CCCC2)o1`, more than 0.0455 mg/mL; that for `O=C(Nc1ccc(Br)cc1)N1CCc2ccccc2C1`, 0.0011 mg/mL (≈ 3.32 µM). As for `CCCc1cc(=O)[nH]c(SCC(=O)NC2CCCCCCC2)n1`, the solubility (kinetic) worked out at 0.0145 mg/mL (≈ 43 µM).

For orientation: solubility (kinetic) means solubility judged after dilution from a stock solution rather than from solid.
